Test results published in the NIST ThermoML archive (doi:10.1016/j.fluid.2010.09.023).
Numbers after ± are expanded uncertainties.

Conditions: Liquid
[1] = 312.59 K, Closed cell (Static) method

In the case of `CC(C)C` [2-methylpropane], the “vapor or sublimation pressure” value (307.79 K, Closed cell (Static) method) is reported as 460.8 ± 3.2 kPa.
For `C=CCC` [1-butene], the “vapor or sublimation pressure” value [1] was 448.3 ± 3.2 kPa.
In the case of `CCCC` [butane], the “vapor or sublimation pressure” value (322.01 K, Closed cell (Static) method) is reported as 479.5 ± 3.2 kPa.
For `CCC#N` [propanenitrile], the “vapor or sublimation pressure” value (307.78 K, Closed cell (Static) method) was 9.47 ± 2.8 kPa, the “vapor or sublimation pressure” value (312.5 K, Closed cell (Static) method) was 11.9 ± 2.8 kPa and the “vapor or sublimation pressure” value (312.58 K, Closed cell (Static) method) was 11.9 ± 2.8 kPa. The “vapor or sublimation pressure” value (313.15 K, Closed cell (Static) method) was 12.5 ± 2.8 kPa, the “vapor or sublimation pressure” value (313.15 K, Ebulliometric method (Recirculating still)) was 12.72 ± 0.29 kPa and the “vapor or sublimation pressure” value (322 K, Closed cell (Static) method) was 17.4 ± 2.8 kPa. The “vapor or sublimation pressure” value (339.57 K, Ebulliometric method (Recirculating still)) was 36.51 ± 0.3 kPa, the “vapor or sublimation pressure” value (353.83 K, Ebulliometric method (Recirculating still)) was 60.04 ± 0.33 kPa and the “vapor or sublimation pressure” value (358.33 K, Closed cell (Static) method) was 69.6 ± 2.8 kPa. For the same molecule, the “vapor or sublimation pressure” value (358.37 K, Ebulliometric method (Recirculating still)) was 69.81 ± 0.36 kPa, the “vapor or sublimation pressure” value (364.8 K, Ebulliometric method (Recirculating still)) was 85.5 ± 0.39 kPa and the “vapor or sublimation pressure” value (370.9 K, Ebulliometric method (Recirculating still)) was 103.12 ± 0.4 kPa.
With `C=C(C)C` [2-methylpropene] the “vapor or sublimation pressure” value [1] was 467.1 ± 3.2 kPa.
With `CCOC(C)(C)C` [2-ethoxy-2-methylpropane] the “vapor or sublimation pressure” value (312.83 K, Ebulliometric method (Recirculating still)) was 30.95 ± 0.33 kPa, the “vapor or sublimation pressure” value (312.84 K, Closed cell (Static) method) was 31.9 ± 2.8 kPa and the “vapor or sublimation pressure” value (330.44 K, Ebulliometric method (Recirculating still)) was 60.25 ± 0.34 kPa. The “vapor or sublimation pressure” value (338.77 K, Ebulliometric method (Recirculating still)) was 80.14 ± 0.38 kPa, the “vapor or sublimation pressure” value (343.01 K, Ebulliometric method (Recirculating still)) was 92 ± 0.42 kPa and the “vapor or sublimation pressure” value (346.26 K, Ebulliometric method (Recirculating still)) was 102.08 ± 0.43 kPa. The “vapor or sublimation pressure” value (358.31 K, Closed cell (Static) method) was 147.9 ± 2.8 kPa.
